Assays:
[1] = target: T1, Liver carboxylesterase 1 (Homo sapiens, UniProt P23141); assay: Prodrug activation in human liver microsomes assessed as CES1-mediated compound hydrolysis at […] after 90 mins by HPLC analysis; settings: 1.5 h
T1 sequence (P23141 whole entry): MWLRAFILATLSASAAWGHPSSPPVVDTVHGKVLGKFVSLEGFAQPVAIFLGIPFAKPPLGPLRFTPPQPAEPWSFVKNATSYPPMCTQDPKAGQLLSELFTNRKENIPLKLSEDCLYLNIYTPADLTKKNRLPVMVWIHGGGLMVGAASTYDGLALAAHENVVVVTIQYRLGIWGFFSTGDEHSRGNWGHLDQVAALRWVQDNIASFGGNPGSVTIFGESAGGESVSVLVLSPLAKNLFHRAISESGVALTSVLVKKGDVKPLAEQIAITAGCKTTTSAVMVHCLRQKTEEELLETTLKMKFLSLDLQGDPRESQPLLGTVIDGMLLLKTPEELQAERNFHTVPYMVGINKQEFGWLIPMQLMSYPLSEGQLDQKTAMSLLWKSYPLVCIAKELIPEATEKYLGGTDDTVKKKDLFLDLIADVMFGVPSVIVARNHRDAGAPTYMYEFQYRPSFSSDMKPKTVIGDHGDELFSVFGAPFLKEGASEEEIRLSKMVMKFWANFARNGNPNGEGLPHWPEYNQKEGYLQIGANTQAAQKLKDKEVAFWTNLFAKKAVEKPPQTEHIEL

[2] = target: T2, Cocaine esterase (Homo sapiens, UniProt O00748); assay: Prodrug activation in human intestine microsomes assessed as CES2-mediated hydrolysis of compound at […] after 90 mins by HPLC analysis; settings: 1.5 h
T2 sequence (O00748 whole entry): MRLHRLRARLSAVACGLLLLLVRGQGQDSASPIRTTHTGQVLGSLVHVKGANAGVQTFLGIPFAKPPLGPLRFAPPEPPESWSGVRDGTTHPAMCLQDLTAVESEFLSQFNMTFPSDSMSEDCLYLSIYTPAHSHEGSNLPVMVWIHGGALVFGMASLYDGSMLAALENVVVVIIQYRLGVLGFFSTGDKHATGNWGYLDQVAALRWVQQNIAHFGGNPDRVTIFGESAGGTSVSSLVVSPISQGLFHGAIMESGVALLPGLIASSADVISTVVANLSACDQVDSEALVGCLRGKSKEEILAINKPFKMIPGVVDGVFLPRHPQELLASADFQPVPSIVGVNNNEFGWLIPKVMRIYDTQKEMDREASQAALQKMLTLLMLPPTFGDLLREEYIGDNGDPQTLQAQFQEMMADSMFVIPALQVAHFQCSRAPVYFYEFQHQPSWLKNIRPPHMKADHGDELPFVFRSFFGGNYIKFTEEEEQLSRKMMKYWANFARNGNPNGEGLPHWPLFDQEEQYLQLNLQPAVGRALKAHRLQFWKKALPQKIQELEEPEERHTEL

[3] = Drug metabolism ratio of CES1 mediated compound hydrolysis in human liver microsomes to CES2-mediated compound hydrolysis in human intestine microsomes; type: ADME
[4] = Prodrug activation assessed as human carboxylesterase 1b-mediated compound hydrolysis at […] after 30 mins by HPLC analysis; settings: isolated protein, 0.5 h
[5] = Prodrug activation assessed as human carboxylesterase1c-mediated compound hydrolysis at […] after 30 mins by HPLC analysis; settings: isolated protein, 0.5 h
[6] = target: T3, Arylacetamide deacetylase (Homo sapiens, UniProt P22760); assay: Prodrug activation assessed as human AADAC-mediated compound hydrolysis at […] after 30 mins by HPLC analysis; settings: 0.5 h
T3 sequence (P22760 whole entry): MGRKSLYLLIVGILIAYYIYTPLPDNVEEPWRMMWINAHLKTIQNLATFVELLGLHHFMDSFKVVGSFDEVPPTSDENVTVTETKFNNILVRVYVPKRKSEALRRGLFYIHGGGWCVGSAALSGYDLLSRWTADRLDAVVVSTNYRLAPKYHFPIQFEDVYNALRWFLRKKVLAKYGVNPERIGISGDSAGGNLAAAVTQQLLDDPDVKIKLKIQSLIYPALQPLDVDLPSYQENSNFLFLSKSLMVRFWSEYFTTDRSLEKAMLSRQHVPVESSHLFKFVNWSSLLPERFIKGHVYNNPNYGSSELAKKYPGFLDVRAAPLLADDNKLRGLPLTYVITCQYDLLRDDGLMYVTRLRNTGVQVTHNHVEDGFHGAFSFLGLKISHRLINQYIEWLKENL

Drug metabolism [1] | Drug metabolism [2] | Ratio [3] | Drug metabolism [4] | Drug metabolism [5] | Drug metabolism [6] | SMILES
metabolite_detected | metabolite_detected | 9.1 | – | – | – | CC(C)c1c(C(=O)Nc2ccccc2)c(-c2ccccc2)c(-c2ccc(F)cc2)n1CC[C@@H](O)C[C@@H](O)CC(=O)OCc1ccccc1
metabolite_detected | metabolite_detected | 30.5 | metabolite_detected | metabolite_detected | metabolite_detected | COC(=O)C[C@H](O)C[C@H](O)CCn1c(-c2ccc(F)cc2)c(-c2ccccc2)c(C(=O)Nc2ccccc2)c1C(C)C
metabolite_notdetected | metabolite_notdetected | 1.7 | – | – | – | CC(C)c1c(C(=O)Nc2ccccc2)c(-c2ccccc2)c(-c2ccc(F)cc2)n1CC[C@@H]1C[C@@H](O)CC(=O)O1 [ATORVASTATIN LACTONE]
metabolite_detected | metabolite_detected | 5.7 | – | – | – | CCCCOC(=O)C[C@H](O)C[C@H](O)CCn1c(-c2ccc(F)cc2)c(-c2ccccc2)c(C(=O)Nc2ccccc2)c1C(C)C
metabolite_detected | metabolite_detected | 4.4 | – | – | – | CCCCCCCCCCOC(=O)C[C@H](O)C[C@H](O)CCn1c(-c2ccc(F)cc2)c(-c2ccccc2)c(C(=O)Nc2ccccc2)c1C(C)C
metabolite_detected | metabolite_detected | 3.4 | – | – | – | COc1ccc(OC(=O)C[C@H](O)C[C@H](O)CCn2c(-c3ccc(F)cc3)c(-c3ccccc3)c(C(=O)Nc3ccccc3)c2C(C)C)cc1
metabolite_detected | metabolite_detected | 1.9 | metabolite_detected | metabolite_detected | metabolite_detected | CC(C)c1c(C(=O)Nc2ccccc2)c(-c2ccccc2)c(-c2ccc(F)cc2)n1CC[C@@H](O)C[C@@H](O)CC(=O)Oc1ccc(F)cc1
metabolite_detected | metabolite_detected | 3.8 | – | – | – | CC(C)c1c(C(=O)Nc2ccccc2)c(-c2ccccc2)c(-c2ccc(F)cc2)n1CC[C@@H](O)C[C@@H](O)CC(=O)Oc1ccccc1
metabolite_detected | metabolite_detected | 5.1 | metabolite_detected | metabolite_detected | metabolite_detected | C=CCOC(=O)C[C@H](O)C[C@H](O)CCn1c(-c2ccc(F)cc2)c(-c2ccccc2)c(C(=O)Nc2ccccc2)c1C(C)C
metabolite_detected | metabolite_detected | 40.1 | – | – | – | CCOC(=O)C[C@H](O)C[C@H](O)CCn1c(-c2ccc(F)cc2)c(-c2ccccc2)c(C(=O)Nc2ccccc2)c1C(C)C
metabolite_detected | metabolite_detected | 4.9 | – | – | – | CC(C)c1c(C(=O)Nc2ccccc2)c(-c2ccccc2)c(-c2ccc(F)cc2)n1CC[C@@H](O)C[C@@H](O)CC(=O)OC1CCCCC1
metabolite_detected | metabolite_detected | 5.3 | – | – | – | CCCCCCCCOC(=O)C[C@H](O)C[C@H](O)CCn1c(-c2ccc(F)cc2)c(-c2ccccc2)c(C(=O)Nc2ccccc2)c1C(C)C
